In patent US12679878B2, “CRF2 receptor agonists and their use in therapy” (SANOFI, priority 2020, dated 2026):
Where two headings read alike, the source gives them in different places. Starred links: 1 amine or outer side, 2 acyl side, 3 side chain; linkers in the order of their positions; H or OH if unused. Non-standard residues stand in square brackets, D forms with d. Residues, ends and D or L forms follow the SMILES beside them. Groups on a side chain read outwards from the residue. *: point of attachment. C18 diacid = O=C(O)CCCCCCCCCCCCCCCCC(=O)*; γGlu = O=C(O)[C@H](CCC(=O)[*:2])N[*:1]; Palmitoyl = CCCCCCCCCCCCCCCC(=O)*; AEEA = NCCOCCOCC(=O)O; Aib = CC(C)(N)C(=O)O

Legend:
human CRF2α receptor = target: T1, human CRF2α receptor (Homo sapiens, UniProt Q13324); assay: cAMP agonism at human CRF2 α receptor in TeloHEAC cells (Example 7); type: cell-based; details: cAMP HTRF, TeloHEAC cells stably expressing human CRF2 α
T1 construct: expressed in transfected cells; host or cells: TeloHEAC
T1 sequence (Q13324 1-411): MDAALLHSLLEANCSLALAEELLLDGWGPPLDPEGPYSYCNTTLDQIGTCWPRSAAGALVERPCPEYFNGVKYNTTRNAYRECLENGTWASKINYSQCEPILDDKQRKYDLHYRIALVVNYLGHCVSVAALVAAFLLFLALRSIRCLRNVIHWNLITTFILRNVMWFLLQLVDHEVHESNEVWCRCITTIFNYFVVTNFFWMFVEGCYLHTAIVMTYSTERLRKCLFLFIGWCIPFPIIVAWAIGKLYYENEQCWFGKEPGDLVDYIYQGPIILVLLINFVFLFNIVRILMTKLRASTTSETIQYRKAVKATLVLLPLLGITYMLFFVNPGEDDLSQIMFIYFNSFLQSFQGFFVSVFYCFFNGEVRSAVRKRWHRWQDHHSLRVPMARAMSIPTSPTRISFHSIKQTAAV
How it was run: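 Steps: thaw and wash cells; suspend in 1×HBSS, 20 mM HEPES, 0 or 0.1% HSA, 2 mM IBMX; add compound, 30 min RT; lyse with HTRF reagents, 1 h; read 665/620 nm. EC50 calculated, E% versus 1000 nM UCN2.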

[1] = Solubility in buffer systems by UPLC-UV (Example 13); type: physicochemical; details: pH 4.5, Solubility in Buffer B [mg/ml]
Experimental: Prior to performing the solubility measurements, the purity of the compounds was determined through UPLC/MS. […] Therefore, solutions from solid samples were prepared in a buffer system with a concentration of 10 mg/mL compound based on the previously determined % purity.
UPLC-UV was performed after 1 hour of gentle agitation from the supernatant, which was obtained after 15 minutes of centrifugation at 2500 RCF (relative centrifugal acceleration). The solubility was determined by the comparison of the UV peak area of a 2 μL-injection of a buffered sample diluted 1:10 with a standard curve of a reference compound with known concentration. The different UV extinction coefficients of sample and reference compound were calculated based on the different amino acid sequences and considered in the concentration calculation.

CRF1R receptor = target: T2, CRF1R receptor (Homo sapiens, UniProt P34998); assay: cAMP activity at anti-target CRF1R, CRF1R-overexpression CHO cell line (Example 9); type: cell-based; details: CRF1R-overexpression CHO cell line; for EC50: 0% HSA; for Emax: read-out: Emax (%)
T2 construct: host or cells: CHO-K1 clone 2
T2 sequence (P34998 24-415): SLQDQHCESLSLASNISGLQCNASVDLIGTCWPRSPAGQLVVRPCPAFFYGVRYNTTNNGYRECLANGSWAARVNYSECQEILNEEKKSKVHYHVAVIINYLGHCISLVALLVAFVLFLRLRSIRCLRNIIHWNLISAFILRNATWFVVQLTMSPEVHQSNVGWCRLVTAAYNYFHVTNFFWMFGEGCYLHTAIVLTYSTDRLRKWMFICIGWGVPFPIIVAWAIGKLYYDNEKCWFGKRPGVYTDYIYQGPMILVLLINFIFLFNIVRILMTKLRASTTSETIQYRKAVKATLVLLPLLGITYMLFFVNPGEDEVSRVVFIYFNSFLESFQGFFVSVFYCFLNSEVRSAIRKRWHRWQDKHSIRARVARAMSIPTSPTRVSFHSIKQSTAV
How it was run: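 Using thawed CRF1R-overexpressing CHO cells at 2000 per well, compound is applied for 30 min at RT in HBSS/HEPES buffer with IBMX. Cellular cAMP content is determined via HTRF, and percent activity is calculated against 1000 nM UCN2 defined as 100%.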

rat CRF2R α receptor = assay: cAMP agonism at rat CRF2R α receptor in A7R5 rat aortic smooth muscle cells (Example 8); type: cell-based; details: cAMP HTRF, A7R5 rat aortic smooth muscle cell line, 0% HSA
How it was run: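 Potency (EC50) is the concentration reaching half-maximal activation, with responses scaled so that 1000 nM urocortin 2 equals 100%. Intracellular cAMP was quantified by homogeneous time-resolved fluorescence at 665/620 nm, 1 h after lysis-buffer reagents. Compound stimulation lasted 30 min at room temperature on 2000 IBMX-treated (2 mM) cells per well in HEPES-buffered HBSS.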

[2] = 0% HSA, read-out: EC50 [nM], 0% HSA
[3] = 0.1% HSA, read-out: EC50 [nM], 0.1% HSA

| Compound | EC50 (human CRF2α receptor; [2]) [nM] | EC50 (human CRF2α receptor; [3]) [nM] | solubility at 1 h [1] [µg/mL] | EC50 (CRF1R receptor) [nM] | Emax (CRF1R receptor) [%] | EC50 (rat CRF2R α receptor) [nM] |
| --- | --- | --- | --- | --- | --- | --- |
| CCCCCCCCCCCCCCCC(=O)N[C@@H](CCC(=O)NCCCC[C@H](NC(=O)[C@H](CC(C)C)NC(=O)[C@H](CCCCN)NC(=O)[C@@H](NC(=O)[C@@H]1CCCN1C(=O)[C@@H](NC(=O)[C@H](CC(=O)O)NC(=O)[C@H](CC(C)C)NC(=O)[C@H](CO)NC(=O)[C@H](CC(C)C)NC(=O)[C@@H](NC(=O)[C@@H](N)[C@@H](C)CC)C(C)C)C(C)C)[C@@H](C)CC)C(=O)N[C@@H](CCCCN)C(=O)N[C@H](C(=O)N[C@@H](CC(C)C)C(=O)N[C@@H](CC(C)C)C(=O)N[C@@H](CCC(=O)O)C(=O)N[C@@H](CCC(N)=O)C(=O)N[C@@H](CCC(=O)O)C(=O)N[C@@H](CCCCN)C(=O)N[C@@H](CCC(N)=O)C(=O)N[C@@H](CCC(=O)O)C(=O)N[C@@H](CCCCN)C(=O)N[C@@H](CCC(=O)O)C(=O)N[C@@H](CCCCN)C(=O)N[C@@H](CCC(N)=O)C(=O)N[C@@H](CCC(N)=O)C(=O)N[C@@H](C)C(=O)N[C@@H](CCC(=O)O)C(=O)N[C@H](C(=O)N[C@@H](CC(N)=O)C(=O)N[C@@H](C)C(=O)N[C@@H](CCC(N)=O)C(=O)N[C@H](C(=O)N[C@@H](CC(C)C)C(=O)N[C@@H](C)C(=O)N[C@@H](CCC(N)=O)C(=O)N[C@H](C(N)=O)C(C)C)[C@@H](C)CC)[C@@H](C)O)[C@@H](C)CC)C(=O)O [compound 2] (H-IVLSLDVPIKLK([γGlu-Palmitoyl])KILLEQEKQEKEKQQAETNAQILAQV-NH2; N-terminus assumed) | 0.01 | 0.01 | > 7600 | – | – | – |
| CC[C@H](C)[C@H](N)C(=O)N[C@H](C(=O)N[C@@H](CC(C)C)C(=O)N[C@@H](CO)C(=O)N[C@@H](CC(C)C)C(=O)N[C@@H](CC(=O)O)C(=O)N[C@H](C(=O)N1CCC[C@H]1C(=O)N[C@H](C(=O)N[C@@H](CCCCN)C(=O)N[C@@H](CC(C)C)C(=O)N[C@@H](CCCCNC(=O)COCCOCCNC(=O)COCCOCCNC(=O)CC[C@H](NC(=O)CCCCCCCCCCCCCCCCC(=O)O)C(=O)O)C(=O)N[C@@H](CCCCN)C(=O)N[C@H](C(=O)N[C@@H](CC(C)C)C(=O)N[C@@H](CC(C)C)C(=O)N[C@@H](CCCCN)C(=O)N[C@@H](CCC(N)=O)C(=O)N[C@@H](CCC(=O)O)C(=O)N[C@@H](CCCNC(=N)N)C(=O)N[C@@H](CCC(N)=O)C(=O)N[C@@H](CCCCN)C(=O)N[C@@H](CCCCN)C(=O)NC(C)(C)C(=O)N[C@@H](CCCNC(=N)N)C(=O)N[C@@H](CCC(=O)O)C(=O)N[C@@H](CCC(N)=O)C(=O)N[C@@H](C)C(=O)N[C@@H](CCC(=O)O)C(=O)N[C@H](C(=O)N[C@@H](CC(N)=O)C(=O)N[C@@H](CCCCN)C(=O)N[C@@H](CCC(N)=O)C(=O)N[C@H](C(=O)N[C@@H](CC(C)C)C(=O)N[C@@H](CCC(=O)O)C(=O)N[C@@H](CCCNC(=N)N)C(=O)N[C@H](C(N)=O)C(C)C)[C@@H](C)CC)[C@@H](C)O)[C@@H](C)CC)[C@@H](C)CC)C(C)C)C(C)C [compound 101] (H-IVLSLDVPIKLK([AEEA-AEEA-γGlu-C18 diacid])KILLKQERQKK[Aib]REQAETNKQILERV-NH2; N-terminus assumed) | 0.11 | 4.28 | – | > 1000 | -0.34 | 1.02 |
| CC[C@H](C)[C@H](N)C(=O)N[C@H](C(=O)N[C@@H](CC(C)C)C(=O)N[C@@H](CO)C(=O)N[C@@H](CC(C)C)C(=O)N[C@@H](CC(=O)O)C(=O)N[C@@H](C(=O)N1CCC[C@H]1C(=O)N[C@H](C(=O)NCC(=O)N[C@@H](CC(C)C)C(=O)N[C@@H](CCCCNC(=O)COCCOCCNC(=O)COCCOCCNC(=O)CC[C@H](NC(=O)CCCCCCCCCCCCCCCCC(=O)O)C(=O)O)C(=O)N[C@@H](CCC(N)=O)C(=O)N[C@H](C(=O)N[C@@H](CC(C)C)C(=O)N[C@@H](CC(C)C)C(=O)N[C@@H](CCCCN)C(=O)N[C@@H](CCC(N)=O)C(=O)N[C@@H](CCC(=O)O)C(=O)N[C@@H](CCCNC(=N)N)C(=O)N[C@@H](CCC(N)=O)C(=O)N[C@@H](CCCCN)C(=O)N[C@@H](CCCCN)C(=O)NC(C)(C)C(=O)N[C@@H](CCCNC(=N)N)C(=O)N[C@@H](CCC(=O)O)C(=O)N[C@@H](CCC(N)=O)C(=O)N[C@@H](C)C(=O)N[C@@H](CCC(=O)O)C(=O)N[C@H](C(=O)N[C@@H](CC(N)=O)C(=O)N[C@@H](CCCCN)C(=O)N[C@@H](CCC(N)=O)C(=O)N[C@H](C(=O)N[C@@H](CC(C)C)C(=O)N[C@@H](C)C(=O)N[C@@H](CCC(N)=O)C(=O)N[C@H](C(N)=O)C(C)C)[C@@H](C)CC)[C@@H](C)O)[C@@H](C)CC)[C@@H](C)CC)C(C)C)C(C)C [compound 147] (H-IVLSLD[dV]PIGLK([AEEA-AEEA-γGlu-C18 diacid])QILLKQERQKK[Aib]REQAETNKQILAQV-NH2; N-terminus assumed) | 0.18 | 8.17 | – | > 1000 | 4.54 | 2.53 |
| CC[C@H](C)[C@H](N)C(=O)N[C@H](C(=O)N[C@@H](CC(C)C)C(=O)N[C@@H](CO)C(=O)N[C@@H](CC(C)C)C(=O)N[C@@H](CC(=O)O)C(=O)N[C@@H](C(=O)N1CCC[C@H]1C(=O)N[C@H](C(=O)NCC(=O)N[C@@H](CC(C)C)C(=O)N[C@@H](CCCCNC(=O)COCCOCCNC(=O)COCCOCCNC(=O)CC[C@H](NC(=O)CCCCCCCCCCCCCCCCC(=O)O)C(=O)O)C(=O)N[C@@H](CCC(N)=O)C(=O)N[C@H](C(=O)N[C@@H](CC(C)C)C(=O)N[C@@H](CC(C)C)C(=O)N[C@@H](CCCCN)C(=O)N[C@@H](CCC(N)=O)C(=O)N[C@@H](CCC(=O)O)C(=O)N[C@@H](CCCNC(=N)N)C(=O)N[C@@H](CCC(N)=O)C(=O)N[C@@H](CCCCN)C(=O)N[C@@H](CCCCN)C(=O)NC(C)(C)C(=O)N[C@@H](CCCNC(=N)N)C(=O)N[C@@H](CCC(=O)O)C(=O)N[C@@H](CCC(N)=O)C(=O)N[C@@H](C)C(=O)N[C@@H](CCC(=O)O)C(=O)N[C@@H](CCCCN)C(=O)N[C@@H](CC(N)=O)C(=O)N[C@@H](CCCCN)C(=O)N[C@@H](CCCNC(=N)N)C(=O)N[C@H](C(=O)N[C@@H](CC(C)C)C(=O)N[C@@H](CCC(=O)O)C(=O)N[C@@H](CCCNC(=N)N)C(=O)N[C@H](C(N)=O)C(C)C)[C@@H](C)CC)[C@@H](C)CC)[C@@H](C)CC)C(C)C)C(C)C [compound 151] (H-IVLSLD[dV]PIGLK([AEEA-AEEA-γGlu-C18 diacid])QILLKQERQKK[Aib]REQAEKNKRILERV-NH2; N-terminus assumed) | 0.08 | 3.87 | – | > 1000 | 9.07 | 0.49 |
